Literature values, collected in patent publication US11859018B2, “Peptoid-based chelating ligands for selective metal chelation” (TRIAD National Security, LLC., priority 2018, dated 2024).

stability constant for the Fe(III) complex, Log(Kβ): 49
Structure (SMILES): O=C(N[C@H]1COC(=O)[C@@H](NC(=O)c2cccc(O)c2O)COC(=O)[C@@H](NC(=O)c2cccc(O)c2O)COC1=O)c1cccc(O)c1O [enterobactin]
